Patent EP1290011B1 (Oncopeptides AB, priority 2000, dated 2001)

Key:
Breast cancer = experiment: Cytotoxic activity in different tumour models; assay type: cell-based, human; settings: Number 4
Corpus cancer = experiment: Cytotoxic activity in different tumour models; assay type: cell-based, human; settings: Number 4
Ovarian carcinoma = experiment: Cytotoxic activity in different tumour models; assay type: cell-based, human; settings: Number 8
[1] = tested on: panel of ten human tumour cell lines; experiment: cells; assay type: cell-based; settings: mean over the ten cell lines; read-out: MEAN IC50
CEM/R = experiment: cells; assay type: cell-based, human; settings: CEM/R; 72 hours incubation; read-out: IC50
8226Dox40 = experiment: cells; assay type: cell-based, human; settings: 8226Dox40, doxorubicin resistance; 72 hours incubation; read-out: IC50
8226LR5 = experiment: cells; assay type: cell-based, human; settings: 8226LR5, melphalan resistance; 72 hours incubation; read-out: IC50
[2] = tested on: primary cultures of human tumor cells from patients (PHTC), Total; experiment: FMCA in PHTC cultures, Table 4, total; settings: 4 µM; n=19-31; 4320 min
CEM/S = experiment: cells; assay type: cell-based, human; settings: CEM/S; 72 hours incubation; read-out: IC50
Solid tumours (PHTC) = experiment: FMCA in PHTC cultures, Table 4, solid; settings: 4 µM; n=12-20; 4320 min
NSC Lung cancer = experiment: Cytotoxic activity in different tumour models; assay type: cell-based, human; settings: Number 8
U937vcr = experiment: cells; assay type: cell-based, human; settings: U937vcr, vincristine resistance; 72 hours incubation; read-out: IC50
[3] = tested on: Hematological tumours (PHTC); experiment: FMCA in PHTC cultures, Table 4, hematological; settings: 4 µM; n=7-11; 4320 min
ACHN = experiment: cells; assay type: cell-based, human; settings: ACHN, primary resistant renal carcinoma; 72 hours incubation; read-out: IC50
Adeno-carcinoma = experiment: Cytotoxic activity in different tumour models; assay type: cell-based, human; settings: Number 5
[4] = tested on: PHTC samples from 9 patients with hematological and 18 patients with solid tumours; experiment: Circumvention of melphalan resistance: FMCA classification of PHTC samples as LDR, IDR, EDR; assay type: cell-based, human; settings: tested at 4 µM; for Number of samples EDR / Number of samples (%) EDR: Extreme drug resistance; for Number of samples (%) EDR / Number of samples (%) IDR / Number of samples (%) LDR: percent of samples; for Number of samples IDR / Number of samples (%) IDR: Intermediate drug resistance; for Number of samples LDR / Number of samples (%) LDR: Low drug resistance
U937gtb = experiment: cells; assay type: cell-based, human; settings: U937gtb, lymphoma; 72 hours incubation; read-out: IC50
8226S = experiment: cells; assay type: cell-based, human; settings: 8226S, myeloma; 72 hours incubation; read-out: IC50
H69 = experiment: cells; assay type: cell-based, human; settings: H69, small cell lung cancer; 72 hours incubation; read-out: IC50
Prostate cancer = experiment: Cytotoxic activity in different tumour models; assay type: cell-based, human; settings: Number 1
H69AR = experiment: cells; assay type: cell-based, human; settings: H69AR, doxorubicin resistance; 72 hours incubation; read-out: IC50
U1285 = experiment: cells; assay type: cell-based; settings: U1285, small cell lung cancer; read-out: IC50
U-1810 = experiment: cells; assay type: cell-based; settings: U-1810, non-small cell lung cancer; read-out: IC50
U-1568 = experiment: cells; assay type: cell-based; settings: U-1568, non-small cell lung cancer; read-out: IC50
NCI-H23 = experiment: cells; assay type: cell-based; settings: NCI-H23, non-small cell lung cancer; read-out: IC50
U-1906E = experiment: cells; assay type: cell-based; settings: U-1906E, small cell lung cancer; read-out: IC50
U1906L = experiment: cells; assay type: cell-based; settings: U1906L, small cell lung cancer; read-out: IC50
[5] = tested on: hematological fresh human tumour specimens (PHTC); settings: 0.66 µM; n=42; 4320 min
U-1752 = experiment: cells; assay type: cell-based; settings: U-1752, non-small cell lung cancer; read-out: IC50
NCI-H125 = experiment: cells; assay type: cell-based; settings: NCI-H125, non-small cell lung cancer; read-out: IC50
[6] = tested on: solid tumour fresh human tumour specimens (PHTC); settings: 0.66 µM; n=22; 4320 min
U1690 = experiment: cells; assay type: cell-based; settings: U1690, small cell lung cancer; read-out: IC50
NCI-H157 = experiment: cells; assay type: cell-based; settings: NCI-H157, non-small cell lung cancer; read-out: IC50
[7] = tested on: fresh human tumour specimens; experiment: FMCA cytotoxic activity in 27 fresh human tumour specimens (Figure 2); assay type: cell-based; settings: 27 human tumour samples, 14 hematological and 13 solid, comparative statement
NCI-H611 = experiment: cells; assay type: cell-based; settings: NCI-H611, non-small cell lung cancer; read-out: IC50
RPMI 8226S = experiment: FMCA comparing J1 and AcJ1; assay type: cell-based; settings: RPMI 8226S cell line
Experimental: (§1) The fluorometric microculture cytotoxicity assay (FMCA) (Larsson, R., et al- 1992: Int J Cancer, 50, 177-185) was used to evaluate the compounds. Briefly, 96-well microtiter plates (NUNC, Roskilde, Denmark) are prepared with 20 µl drug solution at ten times the desired concentration and stored for up to two months at -70°C. In general the substances are first dissolved in absolute or acidic ethanol to concentrations of 4.0 to 8.2 mM and further diluted with sterile water or sterile phosphate buffered saline (PBS, Sigma chemicals). All dilutions with water are made directly before the experiments to minimise the influence of mustard hydrolysis. […] At day zero of the experiment 180 µl of cell suspension of adequate concentration is added to the wells of the thawed plate, six wells serve as controls (cell suspension only) and six wells as blanks (cell medium only). After 72 hours incubation the cells are washed once with PBS, and 100 µl of fluorescein diacetate (10 µg/ml) in a physiological buffer is added. After another 45 min the generated fluorescence (ex 485 nm; em 528 nm) is measured in a 96-well scanning fluorometer (Fluoroscan II, Labsystems Oy, Helsinki, Finland). […]

U-937 = experiment: FMCA comparing J1 and AcJ1; assay type: cell-based; settings: U-937 cell line
Experimental: as §1

## CCOC(=O)[C@H](Cc1ccc(F)cc1)NC(=O)[C@H](Cc1ccc(N(CCCl)CCCl)cc1)NC(=O)[C@@H]1CCCN1.Cl [Example J3, L-Prolinyl-L-melphalanyl-L-p-fluorophenylalanine ethyl ester hydrochloride]
Breast cancer
  Median response at 4.0 µM >50% reduction in tumour cell survival: Yes
Corpus cancer
  Median response at 4.0 µM >50% reduction in tumour cell survival: Yes
Ovarian carcinoma
  Median response at 4.0 µM >50% reduction in tumour cell survival: Yes
[1]
  IC50: 1470 nM
CEM/R
  IC50: 20 nM
8226Dox40
  IC50: 5660 nM
8226LR5
  IC50: 3520 nM
[2]
  Tumour cell survival index (%) Total: 25.9%
CEM/S
  IC50: 60 nM
Solid tumours (PHTC)
  Tumour cell survival index (%) Solid tumours: 36.3%
NSC Lung cancer
  Median response at 4.0 µM >50% reduction in tumour cell survival: Yes
U937vcr
  IC50: 420 nM
[3]
  Tumour cell survival index (%) Hematological tumours: 7%
ACHN
  IC50: 1720 nM
Adeno-carcinoma
  Median response at 4.0 µM >50% reduction in tumour cell survival: Yes
[4]
  Number of samples EDR: 0 (0%)
  Number of samples (%) EDR: 0 (0%)
  Number of samples IDR: 4
  Number of samples (%) IDR: 15%
  Number of samples LDR: 23
  Number of samples (%) LDR: 85%
U937gtb
  IC50: 230 nM
8226S
  IC50: 1510 nM
H69
  IC50: 200 nM
Prostate cancer
  Median response at 4.0 µM >50% reduction in tumour cell survival: Yes
H69AR
  IC50: 1360 nM

## CCOC(=O)[C@H](Cc1ccc(F)cc1)NC(=O)[C@@H](N)Cc1ccc(N(CCCl)CCCl)cc1.Cl [Example J1, L-Melphalanyl-L-p-fluorophenylalanine ethyl ester hydrochloride]
U1285
  IC50: 40 nM
Breast cancer
  Median response at 4.0 µM >50% reduction in tumour cell survival: Yes
U-1810
  IC50: 10 nM
Corpus cancer
  Median response at 4.0 µM >50% reduction in tumour cell survival: No
U-1568
  IC50: 1640 nM
Ovarian carcinoma
  Median response at 4.0 µM >50% reduction in tumour cell survival: Yes
NCI-H23
  IC50: 7600 nM
U-1906E
  IC50: 1170 nM
[1]
  IC50: 660 nM
U1906L
  IC50: 220 nM
CEM/R
  IC50: 10 nM
8226Dox40
  IC50: 1760 nM
8226LR5
  IC50: 2470 nM
[2]
  Tumour cell survival index (%) Total: 40.9%
CEM/S
  IC50: 30 nM
Solid tumours (PHTC)
  Tumour cell survival index (%) Solid tumours: 56.5%
NSC Lung cancer
  Median response at 4.0 µM >50% reduction in tumour cell survival: Yes
U937vcr
  IC50: 110 nM
[3]
  Tumour cell survival index (%) Hematological tumours: 6.6%
[5]
  Tumour cell survival index % Hematological: 13.7%
ACHN
  IC50: 400 nM
Adeno-carcinoma
  Median response at 4.0 µM >50% reduction in tumour cell survival: Yes
[4]
  Number of samples EDR: 1
  Number of samples (%) EDR: 6%
  Number of samples IDR: 3
  Number of samples (%) IDR: 18%
  Number of samples LDR: 13
  Number of samples (%) LDR: 76%
U-1752
  IC50: 1300 nM
U937gtb
  IC50: 70 nM
8226S
  IC50: 810 nM
NCI-H125
  IC50: 9730 nM
[6]
  Tumour cell survival index % Solid: 46.9%
U1690
  IC50: 1390 nM
NCI-H157
  IC50: 3900 nM
[7]
  IC50s (comparison): in all cases was more active than P2
NCI-H611
  IC50: 3170 nM
H69
  IC50: 40 nM
H69AR
  IC50: < 9000 nM

## CCOC(=O)[C@H](Cc1ccc(F)cc1)NC(=O)[C@H](Cc1ccc(N(CCCl)CCCl)cc1)NC(C)=O [AcJ1, N-Acetyl-L-melphalanyl-L-p-fluorophenylalanine ethyl ester]
RPMI 8226S
  IC50: 2900 nM
U-937
  IC50: 610 nM

## CC(C)OC(=O)[C@H](Cc1ccc(F)cc1)NC(=O)[C@@H](N)Cc1ccc(N(CCCl)CCCl)cc1.Cl [JV28, L-Melphalanyl-L-p-fluorophenylalanine isopropyl ester hydrochloride]
Breast cancer
  Median response at 4.0 µM >50% reduction in tumour cell survival: Yes
Ovarian carcinoma
  Median response at 4.0 µM >50% reduction in tumour cell survival: Yes
[1]
  IC50: 410 nM
CEM/R
  IC50: 40 nM
8226Dox40
  IC50: 890 nM
8226LR5
  IC50: 1880 nM
[2]
  Tumour cell survival index (%) Total: 30.4%
CEM/S
  IC50: 60 nM
Solid tumours (PHTC)
  Tumour cell survival index (%) Solid tumours: 44.2%
NSC Lung cancer
  Median response at 4.0 µM >50% reduction in tumour cell survival: Yes
U937vcr
  IC50: 150 nM
[3]
  Tumour cell survival index (%) Hematological tumours: 6.7%
ACHN
  IC50: 50 nM
Adeno-carcinoma
  Median response at 4.0 µM >50% reduction in tumour cell survival: Yes
[4]
  Number of samples EDR: 1
  Number of samples (%) EDR: 6%
  Number of samples IDR: 2
  Number of samples (%) IDR: 12%
  Number of samples LDR: 14
  Number of samples (%) LDR: 82%
U937gtb
  IC50: 100 nM
8226S
  IC50: 510 nM
H69
  IC50: 50 nM
Prostate cancer
  Median response at 4.0 µM >50% reduction in tumour cell survival: Yes
H69AR
  IC50: 370 nM
